Paper PMC7031697, “Mechanism of Activation of AMPK by Cordycepin” (Cell Chemical Biology, 2020)
Where two headings read alike, the source gives them in different places.

Assays:
[1] = design: method as in Wei et al., 2009; conditions: mice, single oral dose of 63 mg/kg; ref Wei et al., 2009; cited from earlier work
[2] = tested on: AMPK; assay: AMPK activation in HepG2 cells in medium without serum but with 0.02% BSA; format: cell-based, human; conditions: medium with 0.02% BSA vs 10% serum
Protocol: (§1) Endogenous AMPK in crude cell lysates was first immunoprecipitated using an equal mixture of anti-α1 and –α2 antibodies (150 μg protein) by incubation at 4°C for 2 hr on a roller mixer. After extensive washing, the immunoprecipitates were assayed for AMPK activity (50 μg per assay, total assay volume 50 μl) using the AMARA peptide (200 μM) as substrate in the presence of 200 μM AMP, 5 mM MgCl2 and 200 μM [γ-^32P]ATP ([Fyffe et al., 2018]).

[3] = tested on: AMPK; assay: AMPK activity in anti-AMPK-α immunoprecipitates from HepG2 cells treated with cordycepin; format: cell-based, human
Protocol: (§2) HepG2 cells ([…]) were cultured in Minimum Essential Medium (MEM) supplemented with 10% (v/v) FBS, 1% (v/v) non-essential amino acids and 1% (v/v) penicillin/streptomycin. Transient transfection of DNAs encoding FLAG-tagged AMPK-γ2 or an R531G mutant of AMPK-γ2 were carried out 36-48 hr prior to experiments using Fugene 6 according to manufacturers’ instructions. U2OS cells ([…]) were cultured in Dulbecco’s Modified Eagle’s Medium (DMEM) supplemented with 10% (v/v) FBS and 1% (v/v) penicillin/streptomycin.
as §1

[4] = tested on: AMPK; assay: Phosphorylation of AMPK, ACC and Raptor in HepG2 cells (western blotting); format: cell-based, human; conditions: cordycepin at 100 μM and above, 1 h
Protocol: SDS-PAGE for AMPK and Raptor was performed using precast Bis-Tris 4–12% gradient polyacrylamide gels in the MOPS buffer system (Invitrogen). SDS-PAGE for ACC was performed using precast Tris-Acetate 3–8% gradient polyacrylamide gels in the Tris-Acetate buffer system (Invitrogen). Proteins were transferred to nitrocellulose membranes using the iBlot2 system (Invitrogen). Membranes were blocked for 1 hr in Li-Cor Odyssey blocking buffer. The membranes were probed with appropriate antibody (0.1–1 μg/ml) in Li-Cor Odyssey blocking buffer, except where the blotting enhancement system was used (Thermo Scientific; as per manufacturers’ instructions). Detection was performed using secondary antibody (1 μg/ml) coupled to IR 680 or IR 800 dye, or IR-streptavidin 800 dye, and the membranes were scanned using the Li-Cor Odyssey IR imager. Protein concentrations were determined by Coomassie Blue binding with bovine serum albumin as standard ([Bradford, 1976]).

[5] = tested on: HepG2 cells; assay: Clonal survival assay, HepG2; format: cell-based, human; conditions: for EC50: Homo sapiens, read-out: half-maximal effect on cell survival
Protocol: (§3) Cells were seeded into 6-well plates at equal density and treated in triplicate at 40% to 60% confluence with vehicle or cordycepin for the indicated time. Cells were trypsinized in 1 ml trypsin:EDTA for 5 min and diluted in 1 ml of complete medium. Cells in control wells were counted using a hemocytometer and 1000 cells from vehicle and cordycepin-treated wells were seeded in triplicate into 10 cm dishes containing 10 ml of medium. The dishes were incubated at 37°C for 10-15 days. […] The dishes were washed with water and the number of colonies counted manually.

[6] = target: T1, AMPK complexes containing the R531G mutant (Homo sapiens, UniProt Q9UGJ0, R531G); assay: AMPK activity in anti-FLAG immunoprecipitates, HepG2 cells with FLAG-tagged AMPK-γ2 R531G mutant; format: cell-based; conditions: 1 h, 300 μM cordycepin, 10 mM phenformin or 300 μM A-769662
T1 construct: expressed in transfected cells; host or cells: HepG2 (transient, Fugene 6)
T1 sequence (Q9UGJ0 whole entry R531G, one chain of several): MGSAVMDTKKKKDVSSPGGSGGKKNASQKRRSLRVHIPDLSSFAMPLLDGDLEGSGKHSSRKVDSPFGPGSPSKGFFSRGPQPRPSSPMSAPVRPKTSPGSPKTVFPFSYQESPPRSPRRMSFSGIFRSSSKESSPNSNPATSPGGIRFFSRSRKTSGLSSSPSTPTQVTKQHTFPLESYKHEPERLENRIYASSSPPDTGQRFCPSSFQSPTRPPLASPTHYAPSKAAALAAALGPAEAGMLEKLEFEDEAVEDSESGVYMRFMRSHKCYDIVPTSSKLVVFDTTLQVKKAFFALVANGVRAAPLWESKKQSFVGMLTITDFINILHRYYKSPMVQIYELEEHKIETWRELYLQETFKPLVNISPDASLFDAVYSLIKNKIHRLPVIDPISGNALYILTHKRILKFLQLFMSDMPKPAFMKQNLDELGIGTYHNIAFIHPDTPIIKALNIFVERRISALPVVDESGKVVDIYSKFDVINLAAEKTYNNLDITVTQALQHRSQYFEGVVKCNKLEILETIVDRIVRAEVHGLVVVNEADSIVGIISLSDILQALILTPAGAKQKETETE
Protocol: as §2
HepG2 cells were transiently transfected with DNAs encoding FLAG-tagged wild type AMPK-γ2 or the R531G mutant, using Fugene 6 according to the manufacturers’ instructions. After transfection for 48 hr, cells were treated with various agents as described, and cell lysates prepared ([Hawley et al., 2018]). FLAG-tagged AMPK was then immunoprecipitated from 150 μg total protein by incubation at 4°C for 2 hr on a roller mixer with 9 μl of EZview Red anti-FLAG M2 affinity gel. After extensive washing, the immunoprecipitates were assayed for AMPK activity (50 μg per assay in a total volume of 50 μl) using the AMARA peptide (200 μM) as substrate in the presence of 200 μM AMP, 5 mM MgCl2 and 200 μM γ-^32P-ATP as described previously ([Fyffe et al., 2018]).

[7] = tested on: AMPK; design: method as in Guo et al., 2010; conditions: HepG2 cells, medium without serum but with 0.02% (w/v) BSA; ref Guo et al., 2010; cited from earlier work
[8] = tested on: AMPK DKO U2OS cells; assay: Clonal survival assay, AMPK DKO U2OS; format: cell-based; conditions: Homo sapiens, 8 h incubation, read-out: half-maximal effect on clonal survival
Description: AMPK-α1^-/- -α2^-/- U2OS cells were generated using the Cas9 (D10A) double nickase system. Pairs of guide RNAs targeted to exon 4 in both PRKAA1 and PRKAA2, along with screening primers for genotyping, were designed and cloned by Thomas Macartney and are available by contacting MRCPPU Reagents and Services (https://mrcppureagents.dundee.ac.uk). Sense guides were cloned into the puromycin-selectable pBABED puro U6 vector and antisense guides into the Cas9 (D10A) vector pX335. U2OS cells carrying a Flp recombinase target site were transfected with 1 μg of each plasmid using Fugene6 according to manufacturers’ instructions. At 24 and 48 hr after transfection, medium was replaced with fresh medium containing 1 μg/ml puromycin. […] Clones were expanded and screened for loss of AMPK protein and activity by Western blotting using anti-AMPK-α and pACC antibody normalised to total ACC detected using streptavidin. […]
as §3, with “Cells were trypsinized in 1 ml trypsin:EDTA for 5 min and diluted in 1 ml of complete medium.” left out, “medium.” for “medium. The dishes were incubated at 37°C for 10-15 days.”

Nc1ncnc2c1ncn2[C@@H]1O[C@H](CO)C[C@H]1O [cordycepin, 3′-deoxyadenosine]
peak plasma concentration [1]: 10 µM | plasma half-life [1]: 2.1 h | time to peak plasma concentration [1]: 1.5 h | potency of AMPK activation compared with medium containing serum [2]: much more potent | AMPK activation ([3]; 30 μM cordycepin, 1 h, medium with serum): No activation was evident | time of return of AMPK phosphorylation and activation to baseline ([3]; 100 μM cordycepin, time course): ≤ 4 h | peak increase in phosphorylation and activation of AMPK ([3]; 100 μM cordycepin, time course, at 1 h): ≈ 2 fold | EC50 ([3]; cordycepin 1 h, medium with serum, read-out: half-maximal effect (EC50) on AMPK kinase activity): 310 ± 60 µM | kinase activity of AMPK, maximum increase ([3]; cordycepin 1 h, medium with serum, ±SEM): 7 ± 1 fold | phosphorylation of Thr172 on AMPK, ACC1 Ser80 and Raptor Ser792 [4]: increased | effect on clonal survival ([5]; 100 μM): only partial effects | effect on clonal survival ([5]; 300 μM): almost complete death | effect on clonal survival ([5]; 1 mM): almost complete death | EC50 ([5]; 2 h treatment): 130 µM | EC50 ([5]; 8 h treatment): 70 µM | EC50 ([5]; 24 h treatment): 35 µM | activation of AMPK complexes containing the R531G mutant [6]: not activated | concentration at which AMPK was activated [7]: ≥ 1 µM | EC50 [8]: 44 ± 2 µM
